Laboratory results taken from patent US9926297B2, “Bicyclic AZA compounds as muscarinic M1 receptor and/or M4 receptor agonists” (Heptares Therapeutics Limited, priority 2014, dated 2018).

Columns and labels:
[1] = target: T1, human muscarinic M2 receptor (Homo sapiens, UniProt P08172); experiment: Alphascreen Surefire phospho-ERK1/2 functional assay, M2; settings: for Emax: CHO, read-out: % Emax cf. ACh, M2, CHO cells stably expressing human M2, relative to ACh
T1 sequence (P08172 1-466): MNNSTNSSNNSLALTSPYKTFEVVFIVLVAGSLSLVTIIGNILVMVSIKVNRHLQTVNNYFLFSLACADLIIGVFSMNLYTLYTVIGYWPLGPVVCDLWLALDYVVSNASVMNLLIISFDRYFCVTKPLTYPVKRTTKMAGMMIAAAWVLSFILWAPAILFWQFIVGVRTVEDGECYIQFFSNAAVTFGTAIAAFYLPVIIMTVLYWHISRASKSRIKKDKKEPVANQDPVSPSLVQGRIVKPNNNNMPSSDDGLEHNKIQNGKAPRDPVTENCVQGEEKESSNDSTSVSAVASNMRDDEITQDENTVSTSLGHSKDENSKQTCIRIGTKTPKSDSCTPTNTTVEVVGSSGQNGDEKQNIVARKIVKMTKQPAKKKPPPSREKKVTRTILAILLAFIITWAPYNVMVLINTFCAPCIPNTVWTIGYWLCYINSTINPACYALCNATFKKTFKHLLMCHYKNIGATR

[2] = target: human muscarinic M3 receptor (Homo sapiens, UniProt P20309); experiment: Alphascreen Surefire phospho-ERK1/2 functional assay, M3; settings: for Emax: CHO, read-out: % Emax cf. ACh, M3, CHO cells stably expressing human M3, relative to ACh; for EC50: pEC50 M3, CHO cells stably expressing human M3, phospho-ERK1/2, * = variable results
[3] = target: T2, human muscarinic M4 receptor (Homo sapiens, UniProt P08173); experiment: Alphascreen Surefire phospho-ERK1/2 functional assay, M4; assay type: cell-based; settings: for EC50: CHO cells stably expressing human M4, phospho-ERK1/2, * = variable results, read-out: pEC50 M4 (converted); for Emax: CHO, read-out: % Emax cf. ACh, M4, CHO cells stably expressing human M4, relative to ACh
T2 construct: expressed in transfected cells
T2 sequence (P08173 1-479): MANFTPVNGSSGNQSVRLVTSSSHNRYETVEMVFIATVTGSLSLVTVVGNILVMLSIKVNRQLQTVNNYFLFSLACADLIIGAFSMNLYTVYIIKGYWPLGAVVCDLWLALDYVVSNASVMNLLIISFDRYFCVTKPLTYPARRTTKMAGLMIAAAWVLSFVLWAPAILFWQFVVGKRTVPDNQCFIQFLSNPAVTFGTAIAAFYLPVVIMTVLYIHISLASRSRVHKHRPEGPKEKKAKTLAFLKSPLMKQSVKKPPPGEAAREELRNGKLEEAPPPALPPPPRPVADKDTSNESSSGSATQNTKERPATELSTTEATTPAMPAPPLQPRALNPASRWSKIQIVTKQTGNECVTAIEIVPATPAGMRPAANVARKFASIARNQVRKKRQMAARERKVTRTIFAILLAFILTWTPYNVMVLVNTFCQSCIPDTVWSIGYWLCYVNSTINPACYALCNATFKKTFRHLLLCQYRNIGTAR

[4] = target: T3, human muscarinic M1 receptor (Homo sapiens, UniProt P11229); experiment: Alphascreen Surefire phospho-ERK1/2 functional assay, M1; assay type: cell-based; settings: for EC50: CHO cells stably expressing human M1, phospho-ERK1/2, * = variable results, read-out: pEC50 M1 (converted); for Emax: CHO, read-out: % Emax cf. ACh, M1, CHO cells stably expressing human M1, relative to ACh
T3 sequence (P11229 1-460): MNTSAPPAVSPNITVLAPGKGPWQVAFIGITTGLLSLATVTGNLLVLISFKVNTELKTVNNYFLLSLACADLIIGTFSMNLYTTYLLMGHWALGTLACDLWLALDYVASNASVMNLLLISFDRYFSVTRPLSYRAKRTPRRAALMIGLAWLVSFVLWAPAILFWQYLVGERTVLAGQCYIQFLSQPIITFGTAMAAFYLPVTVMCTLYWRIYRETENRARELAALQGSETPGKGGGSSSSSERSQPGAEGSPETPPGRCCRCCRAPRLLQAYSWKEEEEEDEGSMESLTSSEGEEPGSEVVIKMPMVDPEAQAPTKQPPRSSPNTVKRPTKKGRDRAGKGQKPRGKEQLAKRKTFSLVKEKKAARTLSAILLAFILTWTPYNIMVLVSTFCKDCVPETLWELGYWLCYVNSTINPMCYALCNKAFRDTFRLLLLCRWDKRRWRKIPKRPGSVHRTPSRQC

human muscarinic M3 receptor, sequence (P20309 whole entry): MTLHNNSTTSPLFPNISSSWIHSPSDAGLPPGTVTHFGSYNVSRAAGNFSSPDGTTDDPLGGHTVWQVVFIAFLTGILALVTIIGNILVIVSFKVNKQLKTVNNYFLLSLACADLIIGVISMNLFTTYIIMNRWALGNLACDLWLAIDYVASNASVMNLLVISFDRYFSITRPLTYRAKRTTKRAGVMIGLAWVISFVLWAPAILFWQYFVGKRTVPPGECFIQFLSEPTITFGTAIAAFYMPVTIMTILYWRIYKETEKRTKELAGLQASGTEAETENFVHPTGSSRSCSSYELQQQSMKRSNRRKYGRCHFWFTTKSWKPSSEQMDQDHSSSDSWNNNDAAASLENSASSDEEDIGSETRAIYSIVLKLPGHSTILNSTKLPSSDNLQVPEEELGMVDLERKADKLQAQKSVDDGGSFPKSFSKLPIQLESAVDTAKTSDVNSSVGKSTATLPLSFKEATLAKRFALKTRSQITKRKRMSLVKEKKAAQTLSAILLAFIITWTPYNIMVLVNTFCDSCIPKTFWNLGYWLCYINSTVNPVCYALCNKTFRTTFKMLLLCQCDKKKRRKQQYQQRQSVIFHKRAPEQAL

| Structure (SMILES) | EC50 [1] | Emax [1] | Emax [2] | EC50 [2] | EC50 [3] | Emax [3] | EC50 [4] | Emax [4] |
| --- | --- | --- | --- | --- | --- | --- | --- | --- |
| CCOC(=O)N1CCC2(CC(N3CCC(C4CCCN4C(=O)C(F)(F)F)CC3)C2)C1 (single isomer, unassigned) [2-4 Isomer 2, ethyl 2-{4-[1-(trifluoroacetyl)pyrrolidin-2-yl]piperidin-1-yl}-6-azaspiro[3.4]octane-6-carboxylate] | > 20000 nM | 2% | 3% | > 20000 nM | 50.1 nM | 110% | 316 nM | 102% |
| CCOC(=O)N1CCC2(CC(N3CCC(C4CCCN4C(=O)CC)CC3)C2)C1 (single isomer, unassigned) [2-6 Isomer 2, ethyl 2-[4-(1-propanoylpyrrolidin-2-yl)piperidin-1-yl]-6-azaspiro[3.4]octane-6-carboxylate] | > 20000 nM | 30% | 16% | > 20000 nM | 15.8 nM | 132% | 3160 nM | 57% |
| CCOC(=O)N1CCC2(CC(N3CCC([C@@H]4CCCN4C(=O)CC)CC3)C2)C1 (single isomer, unassigned) [2-7 Isomer 2] | > 20000 nM | 13% | 27% | 7940 nM | 12.6 nM | 100% | 794 nM | 41% |
| CCOC(=O)N1CCC2(CC(N3CCC([C@@H]4CCCN4C(=O)C4CC4)CC3)C2)C1 (single isomer, unassigned) [2-8 Isomer 2] | > 20000 nM | 3% | 4% | > 20000 nM | 15.8 nM | 86% | 631 nM | 36% |
| CCOC(=O)N1CCC2(CC(N3CCC([C@@H]4CCCN4C(=O)C4CCC4)CC3)C2)C1 (single isomer, unassigned) [2-9 Isomer 2] | > 20000 nM | 4% | 6% | > 20000 nM | 10 nM | 104% | 1000 nM | 43% |
| CCOC(=O)N1CCC2(CC(N3CCC(C4CCCN4C(=O)OC)CC3)C2)C1 (single isomer, unassigned) [2-11 Isomer 2, ethyl 2-{4-[1-(methoxycarbonyl)pyrrolidin-2-yl]piperidin-1-yl}-6-azaspiro[3.4]octane-6-carboxylate] | > 20000 nM | 7% | 7% | > 20000 nM | 25.1 nM | 100% |  | 39% |
| CCOC(=O)N1CCC2(CC(N3CCC([C@@H]4CCCN4C(=O)OC)CC3)C2)C1 (single isomer, unassigned) [2-12 Isomer 2] | > 20000 nM | 9% | 6% | > 20000 nM | 10 nM | 57% | > 20000 nM | 9% |
| CCOC(=O)N1CCC2(CC(N3CCC([C@H]4CCCN4C(=O)OC)CC3)C2)C1 (single isomer, unassigned) [2-13 Isomer 2] | > 20000 nM | 7% | 24% | > 20000 nM | 158 nM | 57% | 10000 nM | 69% |
| CCOC(=O)N1CCC2(CC(N3CCC(C4CCCN4C(=O)OCC)CC3)C2)C1 (single isomer, unassigned) [2-14 Isomer 2, ethyl 2-{4-[1-(ethoxycarbonyl)pyrrolidin-2-yl]piperidin-1-yl}-6-azaspiro[3.4]octane-6-carboxylate] | > 20000 nM | 3% | 7% | > 20000 nM | 15.8 nM | 91% | > 20000 nM | 43% |
| CNC(=O)N1CCC[C@H]1C1CCN(C2CC3(CCN(C(=O)OC)C3)C2)CC1 (single isomer, unassigned) [2-15 Isomer 2] | > 20000 nM | 9% | 9% | > 20000 nM | 15.8 nM | 111% | 398 nM | 72% |
| CCOC(=O)N1CCC2(CC(N3CCC(C4CCCN4C(=O)NC)CC3)C2)C1 (single isomer, unassigned) [2-16 Isomer 2, ethyl 2-{4-[1-(methylcarbamoyl)pyrrolidin-2-yl]piperidin-1-yl}-6-azaspiro[3.4]octane-6-carboxylate] | > 20000 nM | 53% | 7% | > 20000 nM | 6.31 nM | 114% | 251 nM | 41% |
| CCOC(=O)N1CCC2(CC(N3CCC([C@@H]4CCCN4C(=O)NC)CC3)C2)C1 (single isomer, unassigned) [2-17 Isomer 2] | > 20000 nM | 5% | 4% | > 20000 nM | 3.16 nM | 116% | 200 nM | 72% |
| CCOC(=O)N1CCC2(CC(N3CCC([C@H]4CCCN4C(=O)NC)CC3)C2)C1 (single isomer, unassigned) [2-18 Isomer 2] | > 20000 nM | 1% | 4% | > 20000 nM | 79.4 nM | 56% | > 20000 nM | 8% |
| CCNC(=O)N1CCCC1C1CCN(C2CC3(CCN(C(=O)OCC)C3)C2)CC1 (single isomer, unassigned) [2-19 Isomer 2, ethyl 2-{4-[1-(ethylcarbamoyl)pyrrolidin-2-yl]piperidin-1-yl}-6-azaspiro[3.4]octane-6-carboxylate] | > 20000 nM | 3% | 10% | > 20000 nM | 7.94 nM | 113% | 631 nM | 44% |
| CCOC(=O)N1CCC2(CC(N3CCC(C4CCCN4C(=O)N(C)C)CC3)C2)C1 (single isomer, unassigned) [2-20 Isomer 2, ethyl 2-{4-[1-(dimethylcarbamoyl)pyrrolidin-2-yl]piperidin-1-yl}-6-azaspiro[3.4]octane-6-carboxylate] | > 20000 nM | 1% | 6% | > 20000 nM | 31.6 nM | 106% | > 20000 nM | 24% |
| CCOC(=O)N1CCC2(CC(N3CCC([C@@H]4CCCN4C(=O)N(C)C)CC3)C2)C1 (single isomer, unassigned) [2-21 Isomer 2] | > 20000 nM | 4% | 2% | > 20000 nM | 7.94 nM | 113% | 631 nM | 46% |
| CCOC(=O)N1CCC2(CC(N3CCC(C4CCCN4C(=O)CNC)CC3)C2)C1 (single isomer, unassigned) [2-23 Isomer 2, ethyl 2-{4-[1-(N-methylglycyl)pyrrolidin-2-yl]piperidin-1-yl}-6-azaspiro[3.4]octane-6-carboxylate] | > 20000 nM | 3% | 9% | > 20000 nM | 50.1 nM | 104% | 1260 nM | 65% |
